Where “and” joins values, the source holds several entries; their conditions need not be identical. Equal values may be shown once.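 Step 1: Grow cells in 96-well plates. Step 2: Expose to compound for 48 hours at 5 concentrations. Step 3: Interpolate endpoints linearly; if unreached, use highest concentration. At the GI50, growth is halved. TGI marks complete inhibition of growth.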 Where a SMILES comes first, the peptide text is derived from it. [ ]: non-standard residue; d: D form. The star is where a group is joined. ξ: configuration not given here. X3 = COc1ccc(C(N*)c2ccc(OC)cc2)cc1; NMeF = CN[C@@H](Cc1ccccc1)C(=O)O; NMeD = CN[C@@H](CC(=O)O)C(=O)O; NMeV = CN[C@H](C(=O)O)C(C)C; ξNMeV = CNC(C(=O)O)C(C)C; Boc = CC(C)(C)OC(=O)*; ξNMeA = CNC(C)C(=O)O; ξV = CC(C)C(N)C(=O)O
Legend:
Experiment in all cases: inhibition of tumour cell growth, NCI panel, 48 h
CCRF-CEM leukemia = tested on: CCRF-CEM leukemia
HCC-2998 colon = tested on: HCC-2998 colon
HS 578T breast = tested on: HS 578T breast
NCI-H226 lung = tested on: NCI-H226 lung
NCI/ADR-RES ovarian = tested on: NCI/ADR-RES ovarian
RPMI-8226 leukemia = tested on: RPMI-8226 leukemia
SK-MEL-2 melanoma = tested on: SK-MEL-2 melanoma
SNB-19 CNS = tested on: SNB-19 CNS
SW-620 colon = tested on: SW-620 colon
TK-10 renal = tested on: TK-10 renal

Structure (SMILES)	GI50 (CCRF-CEM leukemia)	TGI (CCRF-CEM leukemia)	GI50 (HCC-2998 colon)	TGI (HCC-2998 colon)	GI50 (HS 578T breast)	TGI (HS 578T breast) [µM]	GI50 (NCI-H226 lung)	TGI (NCI-H226 lung)	GI50 (NCI/ADR-RES ovarian) [µM]	TGI (NCI/ADR-RES ovarian) [µM]	GI50 (RPMI-8226 leukemia)	TGI (RPMI-8226 leukemia)	GI50 (SK-MEL-2 melanoma)	TGI (SK-MEL-2 melanoma)	GI50 (SNB-19 CNS)	TGI (SNB-19 CNS)	GI50 (SW-620 colon)	TGI (SW-620 colon)	GI50 (TK-10 renal)	TGI (TK-10 renal)
CCN(Cc1ccc(F)cc1)c1cc(Cl)c(CO)c(Cl)c1	16.8 µM	47.7 µM	13.9 µM	28.1 µM	12.2 µM	33.4	3.69 µM	17.1 µM	13.7	31.4	10700 nM	42.9 µM	15 µM	29.5 µM	12.5 µM	26 µM	13700 nM	30.4 µM	2.58 µM	13.8 µM
O=C(Nc1ccc(Oc2ccc(Nc3nc4ccccc4s3)cc2)cc1)Nc1ccc(Cl)c(C(F)(F)F)c1	1.76 µM	> 100 µM	1.87 µM	3.91 µM	2.07 µM	7.55	1.39 µM	3.33 µM	1.8	4.11	1110 nM	4.34 µM	2.12 µM	4.35 µM	1.71 µM	3.62 µM	1750 nM	3.54 µM	2.3 µM	5.35 µM
O=C(CCCSc1nc(-c2ccccc2)cc(-c2ccccc2)n1)NO	0.368 µM	10.6 µM	2.05 µM	6.95 µM	2.32 µM	27	1.19 µM	9.28 µM	0.305	10.5	808 nM	9.38 µM	2.35 µM	12.6 µM	2.67 µM	13.8 µM	777 nM	12.7 µM	0.669 µM	19.1 µM
COc1ccc(C(NC(=O)C[C@@H](C(=O)N(C)C(C)C(=O)O)N(C)C(=O)[C@@H]2CCCN2C(=O)[C@H](C(C)C)N(C)C(=O)C(C(C)C)N(C)C(=O)[C@H](Cc2ccccc2)N(C)C(=O)C(NC(=O)OC(C)(C)C)C(C)C)c2ccc(OC)cc2)cc1 (stereo partly drawn) (Boc-[ξV][NMeF][ξNMeV][NMeV]P[NMeD](X3)[ξNMeA]-OH)	19.8 µM	17.5 µM and 41.6 µM	19.3 µM	14.8 µM and 36 µM	–	7.32	18 µM	19.2 µM and 32.3 µM	–	> 37.5	–	19.5 µM	14.5 µM	16.8 µM and 28.9 µM	17.5 µM	37.5 µM and 33 µM	18300 nM	16.5 µM and 32.3 µM	20.6 µM	37.5 µM and 35.1 µM
C[C@]12CCC3c4ccc(O)cc4CCC3C1CC[C@@]2(O)CNC(=O)/C=C/c1ccc(O)c(O)c1 (stereo partly drawn)	4.33 µM	31.2 µM	10.8 µM	23.4 µM	6.24 µM	30.8	15.4 µM	33.1 µM	23.9	> 100	8560 nM	50.7 µM	13.5 µM	32.2 µM	10.6 µM	23.8 µM	9360 nM	27.2 µM	2.52 µM	13.7 µM
CCC(=C/[C@H](C)C/C=C/C(C)=C/[C@@H](C)C(=O)[C@@H](C)[C@H](O)[C@@H](C)CC)/C=C/[C@H]1OC(=O)C=C[C@@H]1C	< 0.01 µM	2.66 µM	< 0.01 µM	< 0.01 µM	< 0.01 µM	1.62	< 0.01 µM	0.554 µM	< 0.01	4.31	< 10 nM	1.19 µM	< 0.01 µM	–	< 0.01 µM	2.12 µM	< 10 nM	1.32 µM	< 0.01 µM	1.03 µM
COCCOc1ccc(-c2nc3ccc(-c4nc5ccc(N6CCN(C)CC6)cc5[nH]4)cc3[nH]2)cc1	1.02 µM	> 100 µM	1.78 µM	3.77 µM	2.94 µM	15.9	–	–	> 100	> 100	4110 nM	35.5 µM	1.64 µM	3.59 µM	1.87 µM	10.5 µM	900 nM	4.59 µM	4.74 µM	40.2 µM
O=C1NC(=NC(CO)Cc2ccccc2)S/C1=C\c1ccc2ncccc2c1 (stereo not drawn)	10.6 µM and 4.89 µM	> 25 µM	13.9 µM and 8.02 µM	> 25 µM	11.3 µM and 7.01 µM	> 25	> 25 µM and 5.55 µM	> 25 µM	> 25	> 25	> 18400 nM and 2330 nM	> 25 µM and 12.1 µM	10.1 µM and 4.32 µM	> 25 µM and 12.4 µM	> 25 µM and 4.34 µM	> 25 µM	9040 nM and 927 nM	> 25 µM	> 23.7 µM and 3.55 µM	> 25 µM
CC1(C)OC1COc1c2occc2cc2ccc(=O)oc12 (stereo not drawn)	–	> 100 µM	–	> 100 µM	–	> 100	–	> 100 µM	–	> 100	–	> 100 µM	–	> 100 µM	–	> 100 µM	–	> 100 µM	–	–
O=C(O)c1ccc2c(c1C(=O)O)C(=O)OC2(c1ccc(O)cc1)c1ccc(O)cc1	–	> 100 µM	–	–	–	> 100	–	> 100 µM	–	> 100	–	> 100 µM	–	> 100 µM	–	> 100 µM	–	> 100 µM	–	> 100 µM
O=S(=O)(c1ccccc1)N1CCN(S(=O)(=O)c2ccccc2)c2ccccc21	–	–	–	> 100 µM	–	> 100	–	> 100 µM	–	> 100	–	> 100 µM	–	> 100 µM	–	> 100 µM	–	> 100 µM	–	> 100 µM
O=C(O)c1nc2nc(Cl)c(Cl)nc2[nH]1	–	> 100 µM	–	–	–	> 100	–	> 100 µM	–	> 100	–	> 100 µM	–	> 100 µM	–	> 100 µM	–	> 100 µM	–	> 100 µM
O=C(Oc1ccc(Cl)cc1)c1ccccc1Nc1ccnc(C(F)(F)F)c1	4.94 µM	52.8 µM	13.6 µM	27.6 µM	30.3 µM	93.9	2.94 µM	16.8 µM	16.2	49.5	2870 nM	8.28 µM	20.2 µM	> 100 µM	–	–	6660 nM	63.3 µM	17.9 µM	48.9 µM
N#CC(C#N)=C/C=C(\Sc1nc2ccccc2s1)c1ccc(Cl)cc1	0.577 µM	> 100 µM	13.8 µM	29 µM	6.68 µM	27.9	7.73 µM	22.8 µM	7.19	22.6	–	–	27.8 µM	> 100 µM	8.12 µM	> 41.2 µM	410 nM	–	6.18 µM	15 µM
O=C1CCC2(c3ccc(Cl)cc3)Nc3ccncc3N12 (stereo not drawn)	–	> 10 µM	–	–	–	> 10	–	> 10 µM	–	> 10	–	–	–	> 10 µM	–	> 10 µM	–	> 10 µM	–	> 10 µM

Reference: PubChem BioAssay (NCI)
